Measured values from patent US5116981A, “Antiinflammatory leukotriene B4 analogs” (The Upjohn Company, priority 1989, dated 1992).

Key:
[1] = stability of the isolated product on storage; type: physicochemical; settings: for stability in solution: methanol solution; for stability of the neat isolated product: as isolated oil
[2] = system: chemotactic response of equimolar concentrations of LTB4; settings: cited from earlier work
neutrophil = settings: cited from earlier work

Structure (SMILES) | stability in solution [1] | stability of the neat isolated product [1] | other results
CCCCC/C=C\CC(O)C#Cc1cccc(CC(O)CCCC(=O)O)c1 (stereo not shown) [Example 24, Benzenehexanoic acid, delta-hydroxy-3-[(3-hydroxy-5-undecen-1-ynyl)]] | stable as a methanol solution | – | –
CCCCC/C=C\CC(O)/C=C/c1cccc(CC(O)CCCC(=O)O)n1 (stereo not shown) [Example 35, 2-Pyridinehexanoic acid, delta-hydroxy-6-(3-hydroxy-1,5-undecadienyl) -] | stable methanol solution | unstable oil | –
CCCCC/C=C\CC(O)C#Cc1cccc(CC(O)CCCC(=O)O)n1 (stereo not shown) [Example 36, 2-Pyridinehexanoic acid, delta-hydroxy-6-(3-hydroxy-5-undecen-1-ynyl)-] | – | unstable pale oil | –
CCCCC/C=C\C[C@H](/C=C/C=C/C=C\[C@H](CCCC(=O)O)OC(C)=O)OC(C)=O [LTB4 diacetate] | – | – | inhibition of chemotactic response to LTB4 [2]: competitively inhibit chemotactic response
CCCCCC=CCC(O)C=CC=CC=CC(O)CCCC(=O)N(C)C (stereo not shown) [dimethylamide of LTB4] | – | – | agonist activity (neutrophil; at the concentrations that inhibit degranulation): no appreciable agonist activity; inhibition of neutrophil degranulation induced by LTB4 (neutrophil): inhibit neutrophil degranulation induced by LTB4
